Key:
[1] = tested on: KMS-12-PE Bcl-2 G101V; experiment: In vitro cytotoxicity CellTiter-Glo 48 h, KMS-12-PE Bcl-2 G101V; format: cell-based; settings: for Ratio (G101V/WT): C50 KMS-12-PE Bcl-2 G101V over C50 KMS-12-PE Bcl-2 WT; for IC50: 48 h, CellTiter-Glo, C50 = concentration needed to reach 50% of the cellular viability
How it was run: (§1)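 Transduce KMS-12-PE with Bcl-2 WT or G101V lentivirus, then FACS-sort RFP-positive cells. Add compounds in an 11-point dilution series and incubate 48 h at 37 °C. Measure ATP-based luminescence with CellTiter-Glo and derive C50 (50% viability).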

[2] = target: BCL2 D103Y (Homo sapiens, UniProt P10415, D103Y); experiment: TR-FRET competitive binding assay, BCL2 D103Y; settings: Ki determined from IC50, read-out: TR_FRET EKI_Bcl2 D103Y
How it was run: (§2)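 Competitive TR-FRET displacement of fluorescein-PUMA peptide (2 or 20 nM) from 0.5 nM terbium-labelled N-terminal Halo-fusion BCL2 (1-207, wild type or mutant) or BCLXL (2-196), expressed in E. coli. Buffer 50 mM Hepes pH 7.5, 150 mM NaCl, 5% DMSO; 2 h at 23°C. 520/495 nm ratio fitted over 11 points for IC50, converted to Ki.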

[3] = target: BCL2 WT (Homo sapiens (Human), UniProt P10415); experiment: TR-FRET competitive binding assay, BCL2 WT; settings: Ki determined from IC50, read-out: TR_FRET EKI_Bcl2 WT
How it was run: as §2

[4] = target: BCL2 F104I (Homo sapiens, UniProt P10415, F104I); experiment: TR-FRET competitive binding assay, BCL2 F104I; settings: Ki determined from IC50, read-out: TR_FRET EKI_Bcl2 F104I
Method: (§3) The relative binding potency of each compound was determined in a competitive binding assay using time resolved-fluorescence resonance energy transfer (TR-FRET). The method utilised a fluorescein labelled peptide derived from PUMA (5Flu-Ahx-[…]-NH2 wherein Ahx means 6-hexanoic acid monomer and the amino acid sequence is referred to as SEQ ID:01) which binds to a terbium labelled BCL2 or BCLXL protein. The degree of binding or corresponding compound inhibition can be quantified by the TR-FRET signal between the terbium donor and fluorescein acceptor.
(§4) The human BCL2_wild-type (also named BCL2_wt), BCL2_G101V mutant and BCLXL_wild-type were E. coli expressed as a N-terminal Halo-fusion proteins and singly labelled with Terbium on the Halo protein to afford the following amino acid sequences:
(§5) wherein the BCL2(1-207) sequence corresponds to UniProtKB® primary accession number P10415 and the BCLXL(2-196) sequence corresponds to UniProtKB® primary accession number Q07817-1.
(§6) The assay was performed in a 40 μL volume in white 384-standard well plates (Corning #3574). An 11-point serial dilution of each compound was prepared in DMSO and transferred directly to plate followed by addition of fluorescein labelled peptide and lastly protein. Final assay conditions were 0.5 nM BCL2_wt, BCL2_G101V, BCL2_D103Y, BCL2_F104I, BCL2_D111A or BCLXL_wt, 2 or 20 nM fluorescein labelled peptide, 50 mM Hepes pH 7.5, 150 mM NaCl, 0.5 mM TCEP (Tris(2-carboxyethyl)phosphine), 0.05% Tween 20, 5% DMSO. The mixture was incubated for 2 hours at 23° C.
(§7) TR-FRET measurements were performed on a Biotek Synergy Neo plate reader. TR-FRET was measured by excitation of the Terbium-donor at 340 nm and subsequent (delay time 100 μs) measurement of terbium and fluorescein emission at 495 nm and 520 nm, respectively, over a collection time of 300 μs. The TR-FRET signal was calculated as the emission-ratio at 520 nm over 495 nm.
(§8) The TR-FRET ratio readout for test compounds was normalized against 0% inhibition controls wells and 100% inhibition control wells. Test compound potency (IC50) was estimated by nonlinear regression using the sigmoidal dose-response (variable slope) using Xlfit 4 (IDBS, Guildford, Surrey, UK, model 205). Were the IC50 could not be determined the % inhibition at the highest tested concentration is given.
(§9) y=(A+((B−A)/(1+((C/x)^D))))
(§10) where y is the normalized TR-TRET ratio measurement for a given concentration of test compound, x is the concentration of test compound, A is the estimated efficacy (% inhibition) at infinite compound dilution, and B is the maximal efficacy (% inhibition). C is the IC50 value and D is the Hill slope coefficient.
(§11) The K1 values were determined from the IC50 values according to Cer et al, Nucleic Acids Res, 2009, July 1; 37 (WebServer issue): W441-W445.

[5] = target: BCL2 D111A (Homo sapiens, UniProt P10415, D111A); experiment: TR-FRET competitive binding assay, BCL2 D111A; settings: Ki determined from IC50, read-out: TR_FRET EKI_Bcl2 D111A
Method: as §3, §4, §5, §6, §7, §8, §9, §10, §11

[6] = target: BCLXL WT (Homo sapiens (Human), UniProt Q07817); experiment: TR-FRET competitive binding assay, BCLXL WT; settings: for Ki: BCLXL WT, Ki determined from IC50, read-out: TR_FRET EKI BclxL; for TR_FRET EKI BCLxL/WT selectivty ratio: ratio Ki BCLxL / Ki BCL2 WT
How it was run: as §2

[7] = tested on: KMS-12-PE Bcl-2 WT; experiment: In vitro cytotoxicity CellTiter-Glo 48 h, KMS-12-PE Bcl-2 WT; format: cell-based; settings: C50 = concentration needed to reach 50% of the cellular viability
How it was run: as §1

[8] = target: BCL2 G101V (Homo sapiens, UniProt P10415, G101V); experiment: TR-FRET competitive binding assay, BCL2 G101V; settings: BCL2 G101V; Ki determined from IC50; read-out: TR_FRET EKI_Bcl2 G101V
How it was run: as §2

[9] = tested on: BCL2 G101V; experiment: TR-FRET competitive binding assay, BCL2 G101V; design: species or system human; settings: ratio Ki BCL2 G101V / Ki BCL2 WT
How it was run: as §2

Chain of BCLXL WT (Q07817 other isoform, or with tags, fused parts or gaps): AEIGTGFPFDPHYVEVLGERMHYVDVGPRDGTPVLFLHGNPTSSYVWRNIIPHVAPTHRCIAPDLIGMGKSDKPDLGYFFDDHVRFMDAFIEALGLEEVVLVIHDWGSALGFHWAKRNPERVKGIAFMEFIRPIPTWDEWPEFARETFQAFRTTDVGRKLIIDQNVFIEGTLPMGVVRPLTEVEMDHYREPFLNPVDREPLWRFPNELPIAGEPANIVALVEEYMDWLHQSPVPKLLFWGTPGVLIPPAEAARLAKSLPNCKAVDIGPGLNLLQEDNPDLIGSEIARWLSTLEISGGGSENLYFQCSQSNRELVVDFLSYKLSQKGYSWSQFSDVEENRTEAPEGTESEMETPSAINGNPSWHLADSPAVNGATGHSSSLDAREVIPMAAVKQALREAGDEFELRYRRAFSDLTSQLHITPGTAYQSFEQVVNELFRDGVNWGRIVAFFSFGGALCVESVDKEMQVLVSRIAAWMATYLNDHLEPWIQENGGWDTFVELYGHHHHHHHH

## Cc1c(N(C(=O)c2cc(-c3cc4c(cc3C(=O)N3Cc5ccccc5C[C@H]3C)CN(C(=O)c3cnc(-c5ccccc5)s3)CC4)n(C)c2C)c2ccc(O)cc2)cc(C#N)n1C [Example 17, N-(5-cyano-1,2-dimethyl-1H-pyrrol-3-yl)-N-(4-hydroxyphenyl)-1,2-dimethyl-5-{7-[(3R)-3-methyl-1,2,3,4-tetrahydroisoquinoline-2-carbonyl]-2-(2-phenyl-1,3-thiazole-5-carbonyl)-1,2,3,4-tetrahydroisoquinolin-6-yl}-1H-pyrrole-3-carboxamide]
[1]
  Ratio (G101V/WT): 4.51
[1]; Homo sapiens, KMS-12-PE
  IC50: 0.0144 µM
[2]
  Ki: 4.1 nM
[3]
  Ki: 0.65 nM
[4]
  Ki: 33.9 nM
[5]
  Ki: 3.34 nM
[6]
  Ki: 9.6 nM
  TR_FRET EKI BCLxL/WT selectivty ratio: 14.8
[7]; Homo sapiens, KMS-12-PE
  IC50: 0.0032 µM
[8]
  Ki: 4 nM
[9]
  TR_FRET EKI G101V/WT selectivty ratio: 6.2

## Cc1c(N(C(=O)c2cc(-c3cc4c(cc3C(=O)N3Cc5ccccc5C[C@H]3C)CN(C(=O)C(F)(F)c3ccccc3)CC4)n(C)c2C)c2ccc(O)cc2)cc(C#N)n1C [Example 18, N-(5-cyano-1,2-dimethylpyrrol-3-yl)-5-[2-(2,2-difluoro-2-phenylacetyl)-7-{[(3R)-3-methyl-3,4-dihydro-1H-isoquinolin-2-yl]carbonyl}-3,4-dihydro-1H-isoquinolin-6-yl]-N-(4-hydroxyphenyl)-1,2-dimethylpyrrole-3-carboxamide]
[1]
  Ratio (G101V/WT): 8.67
[1]; Homo sapiens, KMS-12-PE
  IC50: 0.0477 µM
[2]
  Ki: 1.23 nM
[3]
  Ki: 0.3 nM
[4]
  Ki: 53.5 nM
[5]
  Ki: 2.65 nM
[6]
  Ki: 30.2 nM
  TR_FRET EKI BCLxL/WT selectivty ratio: 100.7
[7]; Homo sapiens, KMS-12-PE
  IC50: 0.0055 µM
[8]
  Ki: 4.2 nM
[9]
  TR_FRET EKI G101V/WT selectivty ratio: 14.0

## Cc1c(N(C(=O)c2cc(-c3cc4c(cc3C(=O)N3Cc5ccccc5C[C@H]3C)CN(C(=O)C3CCN(c5ccccc5)C3=O)CC4)n(C)c2C)c2ccc(O)cc2)cc(C#N)n1C (some centres unmarked) [Example 29]
[1]
  Ratio (G101V/WT): 3.62
  IC50: 0.0594 µM
[2]
  Ki: 0.98 nM
[3]
  Ki: 0.67 nM
[4]
  Ki: 78 nM
[5]
  Ki: 1.29 nM
[6]
  Ki: 13.1 nM
  TR_FRET EKI BCLxL/WT selectivty ratio: 19.6
[7]
  IC50: 0.0164 µM
[8]
  Ki: 6.9 nM
[9]
  TR_FRET EKI G101V/WT selectivty ratio: 10.3

## Cc1c(N(C(=O)c2cc(-c3cc4c(cc3C(=O)N3Cc5ccccc5C[C@H]3C)CN(C(=O)Cc3ccc(OCCN5CCC(O)CC5)cc3)CC4)n(C)c2C)c2ccc(O)cc2)cc(C#N)n1C [Example 30, N-(5-cyano-1,2-dimethyl-1H-pyrrol-3-yl)-N-(4-hydroxyphenyl)-5-[2-(2-{4-[2-(4-hydroxypiperidin-1-yl)ethoxy]phenyl}acetyl)-7-[(3R)-3-methyl-1,2,3,4-tetrahydroisoquinoline-2-carbonyl]-1,2,3,4-tetrahydroisoquinolin-6-yl]-1,2-dimethyl-1H-pyrrole-3-carboxamide]
[1]
  Ratio (G101V/WT): 4.76
[1]; Homo sapiens, KMS-12-PE
  IC50: 0.0909 µM
[2]
  Ki: 0.19 nM
[3]
  Ki: 0.1 nM
[4]
  Ki: 0.26 nM
[5]
  Ki: 0.12 nM
[6]
  Ki: 1.1 nM
  TR_FRET EKI BCLxL/WT selectivty ratio: 11.6
[7]; Homo sapiens, KMS-12-PE
  IC50: 0.0191 µM
[8]
  Ki: 0.2 nM
[9]
  TR_FRET EKI G101V/WT selectivty ratio: 1.9

## Cc1c(N(C(=O)c2cc(-c3cc4c(cc3C(=O)N3Cc5ccccc5C[C@H]3C)CN(C(=O)Cc3ccc(OCCN5CCN(C6CC6)CC5)cc3)CC4)n(C)c2C)c2ccc(O)cc2)cc(C#N)n1C [Example 31, N-(5-cyano-1,2-dimethyl-1H-pyrrol-3-yl)-5-[2-(2-{4-[2-(4-cyclopropylpiperazin-1-yl)ethoxy]phenyl}acetyl)-7-[(3R)-3-methyl-1,2,3,4-tetrahydroisoquinoline-2-carbonyl]-1,2,3,4-tetrahydroisoquinolin-6-yl]-N-(4-hydroxyphenyl)-1,2-dimethyl-1H-pyrrole-3-carboxamide]
[1]
  Ratio (G101V/WT): 4.05
[1]; Homo sapiens, KMS-12-PE
  IC50: 0.0312 µM
[2]
  Ki: 0.4 nM
[3]
  Ki: 0.11 nM
[4]
  Ki: 0.52 nM
[5]
  Ki: 0.26 nM
[6]
  Ki: 1.3 nM
  TR_FRET EKI BCLxL/WT selectivty ratio: 11.8
[7]; Homo sapiens, KMS-12-PE
  IC50: 0.0077 µM
[8]
  Ki: 0.3 nM
[9]
  TR_FRET EKI G101V/WT selectivty ratio: 2.6

## Cc1c(N(C(=O)c2cc(-c3cc4c(cc3C(=O)N3Cc5ccccc5C[C@H]3C)CN(C(=O)Cc3ccc(OCCN(C)C5CC5)cc3)CC4)n3c2CCCC3)c2ccc(O)cc2)cc(C#N)n1C [Example 35, N-(5-cyano-1,2-dimethyl-pyrrol-3-yl)-3-[2-[2-[4-[2-[cyclopropyl(methyl)amino]ethoxy]phenyl]acetyl]-7-[(3R)-3-methyl-3,4-dihydro-1H-isoquinoline-2-carbonyl]-3,4-dihydro-1H-isoquinolin-6-yl]-N-(4-hydroxyphenyl)-5,6,7,8-tetrahydroindolizine-1-carboxamide]
[1]
  Ratio (G101V/WT): 3.75
[1]; Homo sapiens, KMS-12-PE
  IC50: 0.0254 µM
[2]
  Ki: 1.35 nM
[3]
  Ki: 0.26 nM
[4]
  Ki: 0.77 nM
[5]
  Ki: 0.27 nM
[6]
  Ki: 2.6 nM
  TR_FRET EKI BCLxL/WT selectivty ratio: 10.0
[7]; Homo sapiens, KMS-12-PE
  IC50: 0.0068 µM
[8]
  Ki: 0.7 nM
[9]
  TR_FRET EKI G101V/WT selectivty ratio: 2.6

## Cc1c(N(C(=O)c2cc(-c3cc4c(cc3C(=O)N3Cc5ccccc5C[C@H]3C)CN(C(=O)Cc3ccc(OCCN5CCN6CCOC[C@@H]6C5)cc3)CC4)n(C)c2C)c2ccc(O)cc2)cc(C#N)n1C [Example 36, 5-{2-[2-(4-{2-[(9aS)-octahydropyrazino[2,1-c][1,4]oxazin-8-yl]ethoxy}phenyl)acetyl]-7-[(3R)-3-methyl-1,2,3,4-tetrahydroisoquinoline-2-carbonyl]-1,2,3,4-tetrahydroisoquinolin-6-yl}-N-(5-cyano-1,2-dimethyl-1H-pyrrol-3-yl)-N-(4-hydroxyphenyl)-1,2-dimethyl-1H-pyrrole-3-carboxamide]
[1]
  Ratio (G101V/WT): 3.75
[1]; Homo sapiens, KMS-12-PE
  IC50: 0.0386 µM
[2]
  Ki: 0.33 nM
[3]
  Ki: 0.11 nM
[4]
  Ki: 0.16 nM
[5]
  Ki: 0.06 nM
[6]
  Ki: 1.4 nM
  TR_FRET EKI BCLxL/WT selectivty ratio: 12.7
[7]; Homo sapiens, KMS-12-PE
  IC50: 0.0103 µM
[8]
  Ki: 0.3 nM
[9]
  TR_FRET EKI G101V/WT selectivty ratio: 2.5

From patent US20250179047A1, “5-[7-(3,4-DIHYDRO-1H-ISOQUINOLINE-2-CARBONYL)-1,2,3,4 TETRAHYDROISOQUINOLIN-6-YL]-1H-PYRROLE-3-CARBOXAMIDE DERIVATIVES, PHARMACEUTICAL COMPOSITIONS CONTAINING THEM AND THEIR USES AS PRO-APOPTOTIC AGENTS” (LES LABORATOIRES SERVIER, priority 2022, published 2025)
